Patent US6284787A, “Use of R-(+)-α-lipoic acid, R-(-)-dihydrolipoic acid and metabolites in the form of the free acid or as salts or esters or amides for the preparation of drugs for the treatment of diabetes mellitus as well as of its sequelae” (Asta Medica Aktiengesellschaft, priority 1993, dated 2001)

Key:
alloxan-induced diabetes = conditions: animal model; cited from earlier work
rat diaphragms = conditions: in vitro, cited from earlier work
pyruvate dehydrogenase = target: T1, pyruvate dehydrogenase (Rattus norvegicus, UniProt P08461+P26284+P49432+Q6P6R2); experiment: Pyruvate dehydrogenase activity after chronic administration in tissues of the spontaneously diabetic rat; assay type: in vivo; conditions: for Pyruvate dehydrogenase activity, trend: spontaneously diabetic rats, 50 mg/kg daily in tail vein, heart muscle, trend after two administrations
T1 construct: The tissue was homogenized; from tissue; host or cells: heart muscle of spontaneously diabetic BB rats
T1 sequence (P26284 30-390): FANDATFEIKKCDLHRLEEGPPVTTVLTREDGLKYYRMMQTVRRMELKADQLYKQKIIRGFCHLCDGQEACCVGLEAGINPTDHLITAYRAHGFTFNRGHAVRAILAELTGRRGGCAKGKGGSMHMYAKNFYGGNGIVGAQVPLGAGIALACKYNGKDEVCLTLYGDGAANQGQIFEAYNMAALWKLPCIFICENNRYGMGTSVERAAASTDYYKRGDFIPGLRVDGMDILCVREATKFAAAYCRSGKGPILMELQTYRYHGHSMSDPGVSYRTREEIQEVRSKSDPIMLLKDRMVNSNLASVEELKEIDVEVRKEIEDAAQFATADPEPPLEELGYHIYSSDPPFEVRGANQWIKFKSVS
T1 sequence (P49432 31-359): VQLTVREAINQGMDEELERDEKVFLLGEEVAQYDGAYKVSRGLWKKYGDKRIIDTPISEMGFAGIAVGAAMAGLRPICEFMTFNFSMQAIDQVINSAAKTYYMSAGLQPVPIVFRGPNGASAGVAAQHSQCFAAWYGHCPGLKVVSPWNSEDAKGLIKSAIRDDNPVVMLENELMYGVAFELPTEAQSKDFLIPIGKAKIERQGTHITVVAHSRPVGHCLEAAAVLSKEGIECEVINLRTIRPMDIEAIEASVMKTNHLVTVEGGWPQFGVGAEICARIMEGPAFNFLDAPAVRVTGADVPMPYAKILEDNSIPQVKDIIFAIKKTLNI
T1 sequence (P08461 86-632 limits assumed): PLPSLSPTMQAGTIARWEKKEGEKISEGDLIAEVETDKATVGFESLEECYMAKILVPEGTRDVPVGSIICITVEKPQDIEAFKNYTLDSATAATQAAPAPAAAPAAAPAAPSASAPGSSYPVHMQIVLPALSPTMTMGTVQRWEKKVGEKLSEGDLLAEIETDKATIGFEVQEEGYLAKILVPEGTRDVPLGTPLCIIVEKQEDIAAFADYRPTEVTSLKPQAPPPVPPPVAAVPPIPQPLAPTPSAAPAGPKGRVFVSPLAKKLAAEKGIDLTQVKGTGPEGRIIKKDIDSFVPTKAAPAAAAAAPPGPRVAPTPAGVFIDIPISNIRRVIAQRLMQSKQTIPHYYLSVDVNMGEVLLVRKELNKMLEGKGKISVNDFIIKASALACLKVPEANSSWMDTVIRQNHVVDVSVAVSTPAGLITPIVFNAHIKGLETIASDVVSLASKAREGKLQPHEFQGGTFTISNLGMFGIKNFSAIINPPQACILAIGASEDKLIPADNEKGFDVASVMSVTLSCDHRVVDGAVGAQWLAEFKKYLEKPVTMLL
T1 sequence (Q6P6R2 36-509): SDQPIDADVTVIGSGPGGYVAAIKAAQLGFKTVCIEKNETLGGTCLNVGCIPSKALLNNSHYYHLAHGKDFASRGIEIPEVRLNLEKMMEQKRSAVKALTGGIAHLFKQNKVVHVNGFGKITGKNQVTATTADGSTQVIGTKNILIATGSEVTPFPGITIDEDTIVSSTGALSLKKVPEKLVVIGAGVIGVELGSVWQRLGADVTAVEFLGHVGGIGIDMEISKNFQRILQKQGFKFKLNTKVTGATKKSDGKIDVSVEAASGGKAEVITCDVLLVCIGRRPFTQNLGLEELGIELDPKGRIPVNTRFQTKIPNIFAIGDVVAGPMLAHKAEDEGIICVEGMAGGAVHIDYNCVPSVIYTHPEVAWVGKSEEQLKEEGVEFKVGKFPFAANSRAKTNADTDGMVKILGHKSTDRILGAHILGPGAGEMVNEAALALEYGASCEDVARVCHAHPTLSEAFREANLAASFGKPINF
Method: After the manifestation of the diabetes, spontaneously diabetic rats (BB-Wol BB, of the Moellegard Company, Denmark, n=10/group) received 0.3 mL of neutral 0.12 M (corresponding to 50 mg/kg of body weight) R-(+)-α-lipoic acid or S-(-)-α-lipoic acid daily, administered in the vein of the tail. A control group received physiological salt solution. After 7 days, the animals were sacrificed. The pyruvate dehydrogenase activity was determined in the heart muscle. The tissue was homogenized.
Pyruvate+NAD^+ +CoA→Acetyl-CoA+CO2 +NADH+H^+
The extinction of the reduced coenzyme is measured at 339 nm in cuvettes with a Shimadzu UV 210 Detector at 37° C. The isolation of the enzyme complex (R. Koeplin, Ph.D. Thesis, University of Tuebingen, FRG, 1988, C. J. Stanley, R. N. Perham, Biochem. J. 191, 147-154, 1980) and the enzyme assay (O. H. Lowry et al. J. Biol. Chem. 256, 815-822, 1951) were carried out as described. The protein was measured by the method of Loary (N. Bashan et al., Am. J. Physiol. m262 (Cell Physiol. 31): C682-690, 1992).

L6 myotubes = experiment: Glucose assimilation in muscle cells (3H-2-desoxyglucose uptake); assay type: cell-based; conditions: for effect on glucose assimilation together with insulin, in words: 2.5 mM with insulin 200 nM; for effect on glucose assimilation, in words: compared with other enantiomer or insulin (200 nM); for Glucose Assimilation R / Glucose Assimilation S: table 1; for Glucose Assimilation Insulin: insulin 200 nM
Method: The tissue muscle cells (L6 myotubes) were prepared in 24-bole plates and differentiated. After incubation with the test substances, an assay was carried out to determine hexose assimilation (^3 H-2-desoxyglucose, 10 μM, 10 minutes). […] After the cells were washed and then lysed with NaOH, the radioactivity absorbed was measured in a counter. Parallel experimental batches were carried out with cytochalasin-B, in order to determine the glucose transporter-dependent glucose translocations.
The results can be expressed as pmol/min×mg of protein.

[1] = tested on: GLUT1 Glucose Transporters; experiment: Translocation of GLUT1 glucose transporters in L6 myotubes (Western blot of cell fractions); assay type: cell-based; conditions: for GLUT1 translocation, Light Microsomal Fraction / GLUT1 translocation, Plasma Membrane: one hour, control 1.00
Method: (§1) L6 myotubes in 15 cm dishes (n=4 to 5) were enlisted and incubated for one hour with 2.5 mM lipoate in MEM with 5 mM of glucose and 2% of fetal bovine serum. The cells were removed, homogenized and worked up in fractions (4° C.). The working up was carried out in an HEPES buffer with a defined addition of protease inhibitor. The cell fractions were obtained in 6 defined centrifuging steps. The fractions were added to a 10% polyacrylamide gel for a Western Blot analysis. The glucose transporters were determined with anti-GLUT1 and anti-GLUT4 antibodies using iodine-labeled protein A and autoradiographic detection.

GLUT 4 = experiment: Translocation of GLUT4 glucose transporters in L6 myotubes; assay type: cell-based
Method: as §1

GLUT1 = experiment: Cellular content of GLUT1 glucose transporters in L6 myotubes; assay type: cell-based; conditions: for Content of GLUT1: L6 myotubes, 2.5 mM, 4 hours of incubation, control 1.00; for cellular content of GLUT1, in words: after four hours of incubation
Method: (§2) L6 myotubes were incubated for 4 hours with 2.5 mM lipoic acid enantiomers in an MEM medium with 2% fetal bovine serum and 5 mM glucose. The glucose transporters were detected as described above. The membrane fraction is obtained after a single centrifugation at 210,000 g.

GLUT4 = experiment: Cellular content of GLUT4 glucose transporters in L6 myotubes; assay type: cell-based; conditions: for Content of GLUT4: 2.5 mM, 4 hours of incubation, control 1.00; for cellular content of GLUT4, in words: after four hours of incubation
Method: as §2

[2] = tested on: streptozotocin-induced diabetes; experiment: Diabetes induced tissue damage, streptozotocin-induced diabetes; assay type: in vivo, Wistar rats; conditions: for mortality in comparison to the control / pathologically changed parameter glycosilated hemoglobin, in words / pathologically changed parameter protein oxidation, in words: streptozotocin-induced diabetes; for % Glycosilated Hemoglobin: 1.65 g/kg of food for 14 weeks, streptozotocin diabetic rats, control 9.7 ± 1.5
Method: Thioct acid enantiomers were administered for 14 weeks by mouth, together with the food (1.65 g/kg of food), to female Wistar rats (n=3 to 6/group) in separate groups.
In the eighth week, streptozotocin diabetes was induced in the animals. Six weeks after the induction of the diabetes, the surviving animals were sacrificed. Tissue was taken and analyzed.

O=C(O)CCCCC1CCSS1 (racemic) [R,S-(+,-)-α-lipoic acid]
effect on blood sugar (alloxan-induced diabetes): blood sugar-lowering effect
effect relative to that of insulin (rat diaphragms; Haugaard): additive
glucose assimilation by muscles (rat diaphragms; racemate from Calbiochem): increases

O=C(O)CCCC[C@@H]1CCSS1 [R-(+)-α-lipoic acid]
Pyruvate dehydrogenase activity, trend (pyruvate dehydrogenase): increased
stimulation of glucose assimilation compared to the S enantiomer, factor (L6 myotubes; 2.5 mM): greater than 2
effect on glucose assimilation together with insulin, in words (L6 myotubes): not additive
effect on glucose assimilation, in words (L6 myotubes; 2.5 mM): comparable to that of insulin
Glucose Assimilation R (L6 myotubes; 2.5 mM, incubation time 15): 16.7 ± 0.6 pmol/mg/min
Glucose Assimilation R (L6 myotubes; 2.5 mM, incubation time 30): 15.9 ± 0.9 pmol/mg/min
Glucose Assimilation R (L6 myotubes; 2.5 mM, incubation time 60): 26.1 ± 0.9 pmol/mg/min
Glucose Assimilation R (L6 myotubes; 2.5 mM, incubation time 120): 27.0 ± 0.4 pmol/mg/min
Glucose Assimilation R-(+)-α-Liponic Acid (L6 myotubes; table 2, 2.5 mM, incubation 15 min): 23.2 ± 0.5 pmol/mg/min
Glucose Assimilation R-(+)-α-Liponic Acid (L6 myotubes; table 2, 2.5 mM, incubation 30 min): 21.1 ± 0.4 pmol/mg/min
Glucose Assimilation R-(+)-α-Liponic Acid (L6 myotubes; table 2, 2.5 mM, incubation 60 min): 25.7 ± 0.5 pmol/mg/min
translocation of glucose transporters Glut 1 from the cytosol to the plasma membrane, in words [1]: stimulates
GLUT1 translocation, Light Microsomal Fraction ([1]; table 4, enantiomers 2.5 mM): 0.46 ± 0.06 relative units
GLUT1 translocation, Plasma Membrane ([1]; table 4, enantiomers 2.5 mM): 1.56 ± 0.25 relative units
GLUT1 translocation, Light Microsomal Fraction ([1]; table 5, enantiomers 2.5 mM): 0.46 ± 0.06 relative units
translocation of glucose transporters GLUT 4 from the cytosol to the plasma membrane, in words (GLUT 4): stimulates
Content of GLUT1 (GLUT1): 1.81 ± 0.01 arbitrary units
cellular content of GLUT1, in words (GLUT1): increases
Content of GLUT4 (GLUT4; L6 myotubes): 1.55 ± 0.24 arbitrary units
cellular content of GLUT4, in words (GLUT4): increases
mortality in comparison to the control [2]: reduced
pathologically changed parameter glycosilated hemoglobin, in words [2]: corrects
pathologically changed parameter protein oxidation, in words [2]: corrects
% Glycosilated Hemoglobin ([2]; table 7): 8.4 ± 1.3%
% Glycosilated Hemoglobin ([2]; table 8): 8.4 ± 1.3%
% Glycosilated Hemoglobin ([2]; table 9): 8.4 ± 1.3%

O=C(O)CCCC[C@H]1CCSS1 [S-(-)-α-lipoic acid, reference compound]
pyruvate dehydrogenase, effect in animal experiments (pyruvate dehydrogenase; animal experiments): inhibited
Pyruvate dehydrogenase activity, trend (pyruvate dehydrogenase): Lowered
effect on glucose assimilation together with insulin, in words (L6 myotubes): decreases the effect of insulin
effect on glucose assimilation, in words (L6 myotubes; 2.5 mM): less effective
Glucose Assimilation S (L6 myotubes; 2.5 mM, incubation time 15): 16.3 ± 0.3 pmol/mg/min
Glucose Assimilation S (L6 myotubes; 2.5 mM, incubation time 30): 14.8 ± 0.7 pmol/mg/min
Glucose Assimilation S (L6 myotubes; 2.5 mM, incubation time 60): 21.6 ± 0.4 pmol/mg/min
Glucose Assimilation S (L6 myotubes; 2.5 mM, incubation time 120): 20.5 ± 0.8 pmol/mg/min
Glucose Assimilation S-(-)α-Liponic Acid (L6 myotubes; table 3, 2.5 mM, incubation 15 min): 14.8 ± 0.4 pmol/mg/min
Glucose Assimilation S-(-)α-Liponic Acid (L6 myotubes; table 3, 2.5 mM, incubation 30 min): 13.3 ± 0.4 pmol/mg/min
Glucose Assimilation S-(-)α-Liponic Acid (L6 myotubes; table 3, 2.5 mM, incubation 60 min): 16.0 ± 0.2 pmol/mg/min
translocation of glucose transporters Glut 1 from the cytosol to the plasma membrane, in words [1]: has no effect or has an inhibiting effect
GLUT1 translocation, Light Microsomal Fraction ([1]; table 4, enantiomers 2.5 mM): 0.38 ± 0.09 relative units
GLUT1 translocation, Plasma Membrane ([1]; table 4, enantiomers 2.5 mM): 0.93 ± 0.37 relative units
GLUT1 translocation, Light Microsomal Fraction ([1]; table 5, enantiomers 2.5 mM): 0.38 ± 0.09 relative units
translocation of glucose transporters GLUT 4 from the cytosol to the plasma membrane, in words (GLUT 4): has no effect or has an inhibiting effect
Content of GLUT1 (GLUT1): 1.08 ± 0.01 arbitrary units
cellular content of GLUT1, in words (GLUT1): has no effect or lowers the cellular content
Content of GLUT4 (GLUT4; L6 myotubes): 0.79 ± 0.47 arbitrary units
cellular content of GLUT4, in words (GLUT4): has no effect or lowers the cellular content
total content of glucose transporters in the cell (GLUT4), in words (GLUT4; translocation experiment, L6 myotubes): appears to lower
mortality in comparison to the control [2]: increased
pathologically changed parameter glycosilated hemoglobin, in words [2]: lesser effect to no effect
pathologically changed parameter protein oxidation, in words [2]: lesser effect to no effect
% Glycosilated Hemoglobin ([2]; table 7): 10.7 ± 2.1%
% Glycosilated Hemoglobin ([2]; table 8): 10.7 ± 2.1%
% Glycosilated Hemoglobin ([2]; table 9): 10.7 ± 2.1%

Insulin: Insulin, added at a concentration of 200 nM
Glucose Assimilation Insulin (L6 myotubes; table 2, incubation 15 min): 24.7 ± 0.9 pmol/mg/min
Glucose Assimilation Insulin (L6 myotubes; table 2, incubation 30 min): 21.6 ± 0.4 pmol/mg/min
Glucose Assimilation Insulin (L6 myotubes; table 2, incubation 60 min): 23.7 ± 0.5 pmol/mg/min
Glucose Assimilation Insulin (L6 myotubes; table 3, incubation 15 min): 17.7 ± 0.3 pmol/mg/min
Glucose Assimilation Insulin (L6 myotubes; table 3, incubation 30 min): 16.3 ± 0.5 pmol/mg/min
Glucose Assimilation Insulin (L6 myotubes; table 3, incubation 60 min): 22.3 ± 0.5 pmol/mg/min
translocation of glucose transporters Glut 1 from the cytosol to the plasma membrane, in words [1]: stimulates
GLUT1 translocation, Plasma Membrane ([1]; table 4, enantiomers 2.5 mM): 1.07 ± 0.14 relative units
GLUT1 translocation, Plasma Membrane ([1]; table 5, enantiomers 2.5 mM): 1.07 ± 0.14 relative units
translocation of glucose transporters GLUT 4 from the cytosol to the plasma membrane, in words (GLUT 4): stimulates
